Data published in EP1927378A1, “Hair-treatment compositions comprising quercetin and use thereof to revitalize hair” (Henkel Kommanditgesellschaft auf Aktien, priority 2006, dated 2008).

Experiments:
Assay type in all cases: cell-based
[1] = test system: KGF; assay: KGF release into medium (ELISA) from dermal papilla cells; details: for Relative Ausschüttung von KGF, Mittelwert [%]: 24 h, untreated sample = 100, spread in brackets
Description: Der Keratinozyten Wachstumsfaktor Factor (KGF) ist ein äußerst wichtiger Regulator des Haars. Bei einer potentiell wachstumsfördernden und das Haar stärkenden Aktivsubstanz kann von einer Steigerung der ins Medium ausgeschütteten Faktoren ausgegangen werden. Die Ausschüttung von KGF kann mit Hilfe von kommerziell erhältlichen ELISA-Kits quantifiziert werden. Dazu wurden die dermalen Papillenzellen über 24 Stunden mit Dihydroquercetin in der Konzentration von 8,8 und 88 µM (entspricht Extrakt der Sibirischen Lerche von 0,003% und 0,0003%) inkubiert und die Konzentration des Wachstumsfaktors im Medium in beschriebener Weise quantifiziert. Tabelle 3: Relative Ausschüttung von KGF in [%] nach Behandlung der dermalen Papillenzellen im Vergleich zur unbehandelten Probe.

[2] = test system: hHa4; assay: Hair keratin expression by quantitative real-time PCR in organotypic cell cultures: hHa4; details: 88 µM, 24 h after application
Excerpt: (§1) Hepatocyte Growth Factor (HGF) und Keratinocyte Growth Factor (KGF) sind wichtige Wachstumsfaktoren, die von den dermalen Papillenzellen synthetisiert werden. Im Speziellen stimuliert HGF das Follikelwachstum und KGF die Keratinozytenproliferation. Entsprechend werden HGF und KGF in der Wachstumsphase vermehrt exprimiert. Diesen Eigenschaften gegenüber steht die Expression von IGFBP-3. Dieses Genprodukt führen zu einer Verschiebung des Zyklus von der Wachstums- zur Regressionsphase. […] Die differentielle Genexpression wurde mittels quantitatitiver RT-PCR (Reverse-Transkription Polymerase Kettenreaktion) bestimmt. […] Zur Quantifizierung der Genexpression wird die unbehandelte Kontrolle gleich 1 gesetzt und die Expression der zu bestimmenden Gene darauf bezogen (x-fache Expression). […]
(§2) Die Festigkeit der Haare und die Haarstruktur ist im Wesentlichen von der Zusammensetzung spezieller haarspezifischer Strukturproteine abhängig, den Haarkeratinen. […] Die Expression verschiedener Haarkeratine organotypischen Modellen kann mit Hilfe des in Beispiel 8 beschriebenen quantitativen Real-Time-PCR-Verfahrens untersucht werden. Zur Quantifizierung der Genexpression wird die Lösungsmittelkontrolle gleich 1 gesetzt und die Expression der zu bestimmenden Gene darauf bezogen (x-fache Expression). […]

[3] = test system: HGF; assay: Differential gene expression by quantitative RT-PCR in dermal papilla cells: HGF; details: for Expression HGF, Mittelwert: 24 h, untreated control = 1, spread in brackets
Excerpt: (§3) Hepatocyte Growth Factor (HGF) und Keratinocyte Growth Factor (KGF) sind wichtige Wachstumsfaktoren, die von den dermalen Papillenzellen synthetisiert werden. Im Speziellen stimuliert HGF das Follikelwachstum und KGF die Keratinozytenproliferation. Entsprechend werden HGF und KGF in der Wachstumsphase vermehrt exprimiert. Diesen Eigenschaften gegenüber steht die Expression von IGFBP-3. Dieses Genprodukt führen zu einer Verschiebung des Zyklus von der Wachstums- zur Regressionsphase. Nach Applikation von Substanzen, die Effekte am biologisch aktiven Teil des Haares hervorrufen, könnte die Bestimmung der Veränderungen der Expression dieser Gene Aussagen über Haarwuchsstimulantien oder -inhibitoren liefern. Die differentielle Genexpression wurde mittels quantitatitiver RT-PCR (Reverse-Transkription Polymerase Kettenreaktion) bestimmt. Nach Anzucht der dermalen Papillenzellen wurden diese für 24 h mit Dihydroquercetin in der Konzentration von 8,8 und 88 µM (entspricht Extrakt der Sibirischen Lerche von 0,003% und 0,0003%) inkubiert. Zur Durchführung der PCR wird zunächst mit Hilfe des RNeasy Mini Kits der Fa. Qiagen die RNA aus den dermalen Papillenzellen isoliert und mittels reverser Transkription in cDNA umgeschrieben. Bei der anschließenden PCR Reaktion, die mit Hilfe genspezifischer Primer für die jeweiligen haarrelevanten Gene durchgeführt wird und die der Amplifikation der gesuchten Genabschnitte dient, wird die Bildung der PCR-Produkte online über ein Fluoreszenzsignal detektiert. Das Fluoreszenzsignal ist dabei proportional zur Menge des gebildeten PCR-Produktes. Je stärker die Expression eines bestimmten Gens ist, desto größer ist die Menge an gebildetem PCR-Produkt und um so höher ist das Fluoreszenzsignal. Zur Quantifizierung der Genexpression wird die unbehandelte Kontrolle gleich 1 gesetzt und die Expression der zu bestimmenden Gene darauf bezogen (x-fache Expression). Dabei werden Werte, die größer/gleich der 2fachen Expression oder kleiner/gleich der 0.5fachen Expression der unbehandelten Kontrolle sind als signifikant differentiell exprimiert eingestuft. […]

[4] = test system: hHa3-I; assay: Hair keratin expression by quantitative real-time PCR in organotypic cell cultures: hHa3-I; details: 88 µM, 24 h after application
Excerpt: as §1, §2

[5] = test system: HGF; assay: HGF release into medium (ELISA) from organotypic hair follicle cell cultures; details: 88 µM
Excerpt: (§4) Hepatocyte Growth Factor (HGF) und Keratinocyte Growth Factor (KGF) sind wichtige Wachstumsfaktoren, die von der dermalen Papille ausgeschüttet werden, um die Proliferation der Haarschaftkeratinozyten, die für die Synthese der Haarkeratine verantwortlich sind, zu steuern. Sie sind außerdem charakteristische Marker für die Anagenphase, in der auch die Keratinsynthese maximal ist. Darüber hinaus ist zu beachten, dass bei der Haaralterung das Proliferationsvermögen der Haarfollikelzellen abnimmt. Die Ausschüttung von HGF sowie KGF kann mit Hilfe von kommerziell erhältlichen ELISA-Kits quantifiziert werden. Dazu werden organotypische Haarfollikelzellkulturen über 72h mit Dihydroquercetin in der Konzentration 88 µM (entspricht Extrakt der Sibirischen Lerche von 0,003%) inkubiert und die Konzentration der Wachstumsfaktoren im Medium in beschriebener Weise bestimmt. Tabelle 4: Relative Ausschüttung von HGF und KGF in [%] nach Behandlung von organotypischen Haarfollikelzellkulturen im Vergleich zu unbehandelten Kontrollen.

[6] = test system: organotypischen Zellkulturen; assay: ATP production (ATPLite-M luminescence assay) in organotypic cell cultures; details: 24 h
Excerpt: ATP (Adenosintriphosphat) ist die universelle Speicherform für chemische Energie in Zellen. Bei der Abspaltung der distalen Phosphatgruppe entsteht ADP und Pi (anorganisches Phosphat). Diese Reaktion ist stark exergon, d.h. es wird Energie frei. Produziert wird ATP beim zellulären, oxidativen Abbau von Fetten, Kohlehydraten und Proteinen. Es dient als Energielieferant für biochemische Synthesen, für Transportvorgänge (aktiver Transport) und für mechanische Arbeit. Diese Vorgänge sind endergon, d.h. sie laufen nur unter Energiezufuhr ab. Um ihren Stoffwechsel optimal aufrecht zu erhalten, sind Zellen also auf eine ausreichende Versorgung mit ATP angewiesen. Auch dermale Papillenzellen benötigen beispielsweise zur Produktion von Wachstumsfaktoren und damit zur Steuerung des Haarzyklus ATP. Die Proliferation und Differenzierung von Haarschaftkeratinozyten ist ebenfalls an die ATP-Synthese gekoppelt, da für beide Vorgänge die Biosynthese spezifischer Proteine essentielle Voraussetzung ist. Kann durch ein Produkt die ATP-Syntheserate der haarrelevanten Zellen erhöht werden, so steht den Zellen mehr Energie zur Verfügung um Stoffwechselvorgänge und zelluläre Strukturen aufrecht zu erhalten, und um Strukturen zu erneuern, z.B. bei Reparaturprozessen oder dem Neuaufbau von Haaren.
Die ATP-Bestimmungen erfolgten mit Hilfe des ATPLiteTM-M Assays (Packard). […]

[7] = test system: KGF; assay: Differential gene expression by quantitative RT-PCR in dermal papilla cells: KGF; details: for Expression KGF, Mittelwert: 24 h, untreated control = 1, spread in brackets
Excerpt: as §3

[8] = test system: IGFBP3; assay: Differential gene expression by quantitative RT-PCR in dermal papilla cells: IGFBP3; details: for Expression IGFBP3, Mittelwert: 24 h, untreated control = 1, spread in brackets
Excerpt: as §3

[9] = test system: "Outer Root Sheath" Keratinozyten; assay: Layer thickness of ORS keratinocytes in organotypic cell culture model (histology); details: 88 µM, 72 h
Excerpt: Physiologische Effekte der Behandlung mit potentiellen Wirkstoffen hinsichtlich einer Verdickung des Haares kann anhand einer Steigerung der Schichtdicke der "Outer Root Sheath" Keratinozyten im organotypischen Zellkulturmodell bestimmt werden. Dazu werden jeweils drei Modelle nach 72 stündiger Inkubation mit Wirkstoff oder mit Referrenzmedium histologisch analysiert: Fixation in 4 % Paraformaldehyd, Färbung mittels Propidiumiodid und mikroskopische Analyse. Im Folgenden wird die Dicke der ORS Keratinozytenschicht des organptypischen Modells randomisiert vermessen und die Ergebnisse werden in Relation zur unbehandelten Kontrolle dargestellt. Tabelle 5: Steigerung der Schichtdicke nach Behandlung der organptypischen Zellkultur mit Dihydroquercetin in der Konzentration von 88 µM (entspricht Extrakt der Sibirischen Lerche von 0,003%) in % im Vergleich zur unbehandelte Probe

[10] = test system: KGF; assay: KGF release into medium (ELISA) from organotypic hair follicle cell cultures; details: 88 µM
Excerpt: as §4

[11] = control = 1, spread in brackets
[12] = dermal papilla cells, 24 h treatment
[13] = organotypic hair follicle cell cultures, 72 h, untreated control = 100, spread in brackets

## O=C1c2c(O)cc(O)cc2OC(c2ccc(O)c(O)c2)C1O (stereo not drawn) [Dihydroquercetin, 2-(3.4-dihyrdroxy-phenyl)-3 5 7-trihydroxy-chroman-4-one]
[1]; dermal papilla cells, 88 µM
  Relative Ausschüttung von KGF, Mittelwert [%]: 176 (16,7) %
[1]; dermal papilla cells, 8,8 µM
  Relative Ausschüttung von KGF, Mittelwert [%]: 173 (17,6) %
[1]; dermal papilla cells, 8,8 and 88 µM
  Freisetzung von KGF (result in words): signifikant erhöhten Freisetzung
[2]
  Keratinexpression hHa4 (result in words): Steigerung der Keratinexpression
[2]; [11]
  Haarkeratinexpression hHa4: 4,1 (1,6) x-fache Expression
[3]; dermal papilla cells, 88 µM
  Expression HGF, Mittelwert: 3,62(2,11) x-fache Expression
[3]; dermal papilla cells, 8,8 µM
  Expression HGF, Mittelwert: 2,90 (1,18) x-fache Expression
[3]; [12]
  Genexpression von HGF (result in words): tendenziell
[4]
  Keratinexpression hHa3-I (result in words): Steigerung der Keratinexpression
[4]; [11]
  Haarkeratinexpression hHa3-I: 4,1 (1,5) x-fache Expression
[5]; [13]
  Relative Ausschüttung von HGF, Mittelwert [%]: 142 (15) %
[5]; organotypic hair model
  Freisetzung des Hepatozyten Wachstumsfaktor (HGF) (result in words): erhöhte Freisetzung
[6]; 88 µM (= 0,003% Extrakt der Sibirischen Lerche), untreated sample = 100
  ATP-Produktion von organotypischen Zellkulturen in %, Mittelwert (Standardabweichung): 138 (10) %
[6]; organotypic cell cultures, 88 µM
  Steigerung der ATP-Produktion gegenüber der unbehandelten Kontrolle: 38%
[7]; dermal papilla cells, 88 µM
  Expression KGF, Mittelwert: 2,18 (0,27) x-fache Expression
[7]; dermal papilla cells, 8,8 µM
  Expression KGF, Mittelwert: 2,71 (0,36) x-fache Expression
[7]; [12]
  Genexpression von KGF (result in words): signifikanten Induktion
[8]; dermal papilla cells, 88 µM
  Expression IGFBP3, Mittelwert: 0,63(0,13) x-fache Expression
[8]; dermal papilla cells, 8,8 µM
  Expression IGFBP3, Mittelwert: 0,72 (0,04) x-fache Expression
[8]; [12]
  Genexpression von IGFBP-3 (result in words): tendenziellen verminderten Expression
[9]; called tendential
  Steigerung der ORS Keratinozytenschichtdicke: 11%
[9]; control = 100, spread in brackets
  Schichtdicke in % im Vergleich zur unbehandelte Probe, Mittelwert: 111 (4) %
[10]; [13]
  Relative Ausschüttung von KGF, Mittelwert [%]: 126 (7) %
[10]; organotypic hair model
  Freisetzung von KGF (result in words): Aktivierung der Freisetzung
